In patent US8759365B2, “Organic compounds” (Novartis AG, priority 2007, dated 2014) one finds IC50 data, which are given here for 19 molecules.

rhCETP, sequence (P11597 18-493): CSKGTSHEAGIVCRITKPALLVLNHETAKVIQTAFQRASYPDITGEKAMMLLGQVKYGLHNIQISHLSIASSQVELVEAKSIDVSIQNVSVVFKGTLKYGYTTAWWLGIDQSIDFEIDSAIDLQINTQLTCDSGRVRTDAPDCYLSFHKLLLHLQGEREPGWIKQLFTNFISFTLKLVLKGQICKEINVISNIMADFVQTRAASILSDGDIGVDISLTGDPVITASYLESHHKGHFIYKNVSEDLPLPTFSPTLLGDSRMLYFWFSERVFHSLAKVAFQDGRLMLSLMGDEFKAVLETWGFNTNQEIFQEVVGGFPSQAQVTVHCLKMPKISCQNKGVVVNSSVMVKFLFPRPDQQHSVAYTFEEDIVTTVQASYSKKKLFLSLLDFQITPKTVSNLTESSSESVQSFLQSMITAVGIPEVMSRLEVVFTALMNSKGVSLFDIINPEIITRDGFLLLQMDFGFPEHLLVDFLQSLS

This assay has as its target rhCETP (Homo sapiens (Human), UniProt P11597). Briefly: CETP in vitro assay (CETP Activity Kit, fluorescence, rhCETP). Format: biochemical. Conditions: CETP inhibition; Table 1 does not name the assay; read-out: IC50 (nM), Inhibitory Activity of Compounds. How it is done: CETP Activity Kit (#RB-RPAK) was purchased from Roar Biochemical, Inc. (New York, N.Y., USA). To each well of a 96-well NBS half-area plate (costar #3686), […] of the donor solution, 1 μL of the acceptor solution and 5 μL compound solution diluted in 100% DMSO were added in a 38 μL of buffer containing 10 mM Tris, 150 mM NaCl and 2 mM EDTA, pH 7.4. Then, the plate was sealed with Themowell™ Sealers (costar #6524) and followed by a mixing on a plate shaker by MICROPLATE MIXER MPX-96 (IWAKI) at power 3 for 10 sec at room temperature. After 10-min incubation at 37° C., the reaction was started by adding 5 μL of rhCETP solution (Cardiovascular Target, New York, N.Y., USA) and mixed on the plate shaker for 10 sec, then the fluorescence intensity at 0 min was measured by a ARVO SX (Perkin Elmerr, USA) at excitation wavelength of 465 nm and emission wavelength of 535 nm. After 120 min-incubation at 37° C., fluorescence intensity was measured again. The inhibition of rhCETP activity by a compound was calculated by the following calculation. Inhibition %={1−(F120−F0)/(f120−f0)}×100 F: measured fluorescence intensity with compound at 0 or 120 min. f: measured fluorescence intensity of without compound at 0 or 120 min.
The IC50 values are determined from the dose-effect curve by Origin software. IC50 values, especially from about 0.1 nM to about 50 μM, are determined for the compounds of the present invention or a pharmaceutically acceptable salt thereof.
As a reminder, the IC50 is the point on the concentration scale where inhibition reaches its midpoint. For `CC[C@@H]1C[C@H](N(Cc2cc(C(F)(F)F)cc(C(F)(F)F)c2)c2ncc(-c3cnn(C)c3)cn2)CN1C(=O)C1CCCCC1` [Example 5-3, ((2R,4S)-4-{(3,5-Bis-trifluoromethyl-benzyl)-[5-(1-methyl-1H-pyrazol-4-yl)-pyrimidin-2-yl]-amino}-2-ethyl-pyrrolidin-1-yl)-cyclohexyl-methanone], the IC50 worked out at 92 nM.

Regarding `CC[C@@H]1C[C@H](N(Cc2cc(C(F)(F)F)cc(C(F)(F)F)c2)c2ncc(-c3cnn(C)c3)cn2)CN1C(=O)OC1CCOCC1` [Example 7-4, (2R,4S)-4-{(3,5-Bis-trifluoromethyl-benzyl)-[5-(1-methyl-1H-pyrazol-4-yl)-pyrimidin-2-yl]-amino}-2-ethyl-pyrrolidine-1-carboxylic acid tetrahydro-pyran-4-yl ester], the concentration for half-maximal inhibition (IC50) was 60 nM.

With `CC[C@@H]1C[C@H](N(Cc2cc(C(F)(F)F)cc(C(F)(F)F)c2)c2ncc(-c3cnn(C)c3)cn2)CN1C(=O)N1CCCCC1` [Example 16-2, ((2R,4S)-4-{(3,5-Bis-trifluoromethyl-benzyl)-[5-(1-methyl-1H-pyrazol-4-yl)-pyrimidin-2-yl]-amino}-2-ethyl-pyrrolidin-1-yl)-piperidin-1-yl-methanone], the IC50 is 25 nM.

On to `CC[C@@H]1C[C@H](N(Cc2cc(C(F)(F)F)cc(C(F)(F)F)c2)c2ncc(N3CC[C@H](O)C3)cn2)CN1c1nc(N2CCC(O)CC2)ncc1Cl` [Example 23-6], for which the IC50 was 110 nM.

On to `CC[C@@H]1C[C@H](N(Cc2cc(C(F)(F)F)cc(C(F)(F)F)c2)c2ncc(N3CC[C@H](O)C3)cn2)CN1C(=O)OC(C)C` [Example 11, (2R,4S)-4-{(3,5-Bis-trifluoromethyl-benzyl)-[5-((S)-3-hydroxy-pyrrolidin-1-yl)-pyrimidin-2-yl]-amino}-2-ethyl-pyrrolidine-1-carboxylic acid isopropyl ester], for which the IC50 was determined as 72 nM.

As for `CC[C@@H]1C[C@H](N(Cc2cc(C(F)(F)F)cc(C(F)(F)F)c2)c2ncc(-c3cnn(C)c3)cn2)CN1C(=O)OCC(F)(F)F` [Example 9-2, (2R,4S)-4-{(3,5-Bis-trifluoromethyl-benzyl)-[5-(1-methyl-1H-pyrazol-4-yl)-pyrimidin-2-yl]-amino}-2-ethyl-pyrrolidine-1-carboxylic acid 2,2,2-trifluoro-ethyl ester], the IC50 was found to be 59 nM.

On to `CC[C@@H]1C[C@H](N(Cc2cc(C(F)(F)F)cc(C(F)(F)F)c2)c2ncc(-c3cnn(C)c3)cn2)CN1C(=O)OCC1(CC)COC1` [Example 9-6, (2R,4S)-4-{(3,5-Bis-trifluoromethyl-benzyl)-[5-(1-methyl-1H-pyrazol-4-yl)-pyrimidin-2-yl]-amino}-2-ethyl-pyrrolidine-1-carboxylic acid 3-ethyl-oxetan-3-ylmethyl ester], for which the IC50 was determined as 70 nM.

On to `CC[C@@H]1C[C@H](N(Cc2cc(C(F)(F)F)cc(C(F)(F)F)c2)c2ncc(-c3cn[nH]c3)cn2)CN1C(=O)OC(C)C` [Example 14, (2R,4S)-4-{(3,5-Bis-trifluoromethyl-benzyl)-[5-(1H-pyrazol-4-yl)-pyrimidin-2-yl]-amino}-2-ethyl-pyrrolidine-1-carboxylic acid isopropyl ester], for which the IC50 amounted to 34 nM.

Regarding `CC[C@@H]1C[C@H](N(Cc2cc(C(F)(F)F)cc(C(F)(F)F)c2)c2ncc(-c3cnn(C)c3)cn2)CN1C(=O)OCC(C)(C)C` [Example 6-2, (2R,4S)-4-{(3,5-Bis-trifluoromethyl-benzyl)-[5-(1-methyl-1H-pyrazol-4-yl)-pyrimidin-2-yl]-amino}-2-ethyl-pyrrolidine-1-carboxylic acid 2,2-dimethyl-propyl ester], the IC50 turned out to be 47 nM.

As to `CC[C@@H]1C[C@H](N(Cc2cc(C(F)(F)F)cc(C(F)(F)F)c2)c2ncc(-c3cnn(C)c3)cn2)CN1c1nc(N2CCC(O)CC2)ncc1Cl` [Example 23-10], the IC50 came out at 30 nM.

For `CC[C@@H]1C[C@H](N(Cc2cc(C(F)(F)F)cc(C(F)(F)F)c2)c2ncc(-c3cnn(C)c3)cn2)CN1C(=O)OCC1CCOCC1` [Example 7-6, (2R,4S)-4-{(3,5-Bis-trifluoromethyl-benzyl)-[5-(1-methyl-1H-pyrazol-4-yl)-pyrimidin-2-yl]-amino}-2-ethyl-pyrrolidine-1-carboxylic acid tetrahydro-pyran-4-ylmethyl ester], the concentration for half-maximal inhibition (IC50) turned out to be 46 nM.

Regarding `CC[C@@H]1C[C@H](N(Cc2cc(C(F)(F)F)cc(C(F)(F)F)c2)c2ncc(-c3cnn(C)c3)cn2)CN1C(=O)O[C@@H](C)CC` [Example 9-5, (2R,4S)-4-{(3,5-Bis-trifluoromethyl-benzyl)-[5-(1-methyl-1H-pyrazol-4-yl)-pyrimidin-2-yl]-amino}-2-ethyl-pyrrolidine-1-carboxylic acid (S)-sec-butyl ester], the IC50 turned out to be 54 nM.

Take `CCC(CC)OC(=O)N1C[C@@H](N(Cc2cc(C(F)(F)F)cc(C(F)(F)F)c2)c2ncc(-c3cnn(C)c3)cn2)C[C@H]1CC` [Example 9-1, (2R,4S)-4-{(3,5-Bis-trifluoromethyl-benzyl)-[5-(1-methyl-1H-pyrazol-4-yl)-pyrimidin-2-yl]-amino}-2-ethyl-pyrrolidine-1-carboxylic acid 1-ethyl-propyl ester]: the IC50 stood at 41 nM.

In the case of `CC[C@@H]1C[C@H](N(Cc2cc(C(F)(F)F)cc(C(F)(F)F)c2)c2ncc(-c3cnn(C)c3)cn2)CN1C(=O)OCC(C)C` [Example 6-1, (2R,4S)-4-{(3,5-Bis-trifluoromethyl-benzyl)-[5-(1-methyl-1H-pyrazol-4-yl)-pyrimidin-2-yl]-amino}-2-ethyl-pyrrolidine-1-carboxylic acid isobutyl ester], the IC50 amounted to 69 nM.

`CC[C@@H]1C[C@H](N(Cc2cc(C(F)(F)F)cc(C(F)(F)F)c2)c2ncc(-c3cnn(C)c3)cn2)CN1C(=O)OC1CCCC1` [Example 9-3, (2R,4S)-4-{(3,5-Bis-trifluoromethyl-benzyl)-[5-(1-methyl-1H-pyrazol-4-yl)-pyrimidin-2-yl]-amino}-2-ethyl-pyrrolidine-1-carboxylic acid cyclopentyl ester]: the IC50 is 70 nM.

Turning to `CC[C@@H]1C[C@H](N(Cc2cc(C(F)(F)F)cc(C(F)(F)F)c2)c2ncc(-c3cnn(C)c3)cn2)CN1C(=O)N1CCOCC1` [Example 17, ((2R,4S)-4-{(3,5-Bis-trifluoromethyl-benzyl)-[5-(1-methyl-1H-pyrazol-4-yl)-pyrimidin-2-yl]-amino}-2-ethyl-pyrrolidin-1-yl)-morpholin-4-yl-methanone], the IC50 turned out to be 32 nM.

As for `CC[C@@H]1C[C@H](N(Cc2cc(C(F)(F)F)cc(C(F)(F)F)c2)c2ncc(-c3cnn(C)c3)cn2)CN1C(=O)N(C)C` [Example 18, (2R,4S)-4-{(3,5-Bis-trifluoromethyl-benzyl)-[5-(1-methyl-1H-pyrazol-4-yl)-pyrimidin-2-yl]-amino}-2-ethyl-pyrrolidine-1-carboxylic acid dimethylamide], the IC50 came to 63 nM.

On to `CC[C@@H]1C[C@H](N(Cc2cc(C(F)(F)F)cc(C(F)(F)F)c2)c2ncc(-c3cnn(C)c3)cn2)CN1C(=O)N1CCCC1` [Example 16, ((2R,4S)-4-{(3,5-Bis-trifluoromethyl-benzyl)-[5-(1-methyl-1H-pyrazol-4-yl)-pyrimidin-2-yl]-amino}-2-ethyl-pyrrolidin-1-yl)-pyrrolidin-1-yl-methanone], for which the IC50 amounted to 39 nM.

For the molecule `CC[C@@H]1C[C@H](N(Cc2cc(C(F)(F)F)cc(C(F)(F)F)c2)c2ncc(-c3cnn(C)c3)cn2)CN1C(=O)O[C@H](C)CC` [Example 9-4, (2R,4S)-4-{(3,5-Bis-trifluoromethyl-benzyl)-[5-(1-methyl-1H-pyrazol-4-yl)-pyrimidin-2-yl]-amino}-2-ethyl-pyrrolidine-1-carboxylic acid (R)-sec-butyl ester], the 50% inhibitory concentration (IC50) was 21 nM.
